Laboratory results published in publication PMC5218480 (PLoS ONE, 2017).

Test system: MV-4-11 cells
Assay: Gene expression microarray analysis (Affymetrix PrimeView) and GSEA
Format: cell-based, human
Design: RFU PODN (11730768_x_at) / Fold change /veh PODN (11730768_x_at) / RFU LINC00158 (11744669_a_at) / Fold change /veh LINC00158 (11744669_a_at) / RFU DUSP10 (11751237_a_at) / Fold change /veh DUSP10 (11751237_a_at) / RFU ID3 (11757404_x_at) / Fold change /veh ID3 (11757404_x_at) / RFU PLEKHG5 (11737974_s_at) / Fold change /veh PLEKHG5 (11737974_s_at) / RFU LRRC4B (11730491_at) / Fold change /veh LRRC4B (11730491_at) / RFU GIMAP4 (11747438_a_at) / Fold change /veh GIMAP4 (11747438_a_at) / RFU KRT8 (11758183_x_at) / Fold change /veh KRT8 (11758183_x_at) / RFU CNN1 (11734310_a_at) / Fold change /veh CNN1 (11734310_a_at) / RFU VPS37D (11726825_at) / Fold change /veh VPS37D (11726825_at) / RFU C10orf10 (11716522_x_at) / Fold change /veh C10orf10 (11716522_x_at) / RFU KIR2DL2 /// KIR2DL4 /// KIR2DL5A /// KIR2DL5B /// KIR2DS1 /// KIR2DS2 /// KIR2DS3 /// KIR2DS4 /// KIR3DL3 /// KIR3DL3 /// KIR3DS1 (11738374_at) / Fold change /veh KIR2DL2 /// KIR2DL4 /// KIR2DL5A /// KIR2DL5B /// KIR2DS1 /// KIR2DS2 /// KIR2DS3 /// KIR2DS4 /// KIR3DL3 /// KIR3DL3 /// KIR3DS1 (11738374_at) / RFU C1QL1 (11718748_at) / Fold change /veh C1QL1 (11718748_at) / RFU TMPRSS4 (11747572_a_at) / Fold change /veh TMPRSS4 (11747572_a_at) / RFU HAMP (11756126_x_at) / Fold change /veh HAMP (11756126_x_at) / RFU RNFT2 (11725882_a_at) / Fold change /veh RNFT2 (11725882_a_at) / RFU NR4A2 (11747474_a_at) / Fold change /veh NR4A2 (11747474_a_at) / RFU ABCC12 (11746883_a_at) / Fold change /veh ABCC12 (11746883_a_at) / RFU TMEM136 (11760407_x_at) / Fold change /veh TMEM136 (11760407_x_at) / RFU CLDN22 /// WWC2 (11732394_at) / Fold change /veh CLDN22 /// WWC2 (11732394_at) / RFU HLA-DPB1 (11760878_x_at) / Fold change /veh HLA-DPB1 (11760878_x_at) / RFU SPINT1 (11716480_a_at) / Fold change /veh SPINT1 (11716480_a_at) / RFU GAP43 (11754022_s_at) / Fold change /veh GAP43 (11754022_s_at) / RFU A4GNT (11735810_at) / Fold change /veh A4GNT (11735810_at) / RFU PRB3 (11715151_x_at) / Fold change /veh PRB3 (11715151_x_at) / RFU TUBB4B (11761932_at) / Fold change /veh TUBB4B (11761932_at) / RFU CAPN14 (11732068_a_at) / Fold change /veh CAPN14 (11732068_a_at) / RFU TMCC2 (11721928_a_at) / Fold change /veh TMCC2 (11721928_a_at) / RFU IRGQ (11745062_a_at) / Fold change /veh IRGQ (11745062_a_at) / RFU FAM174B (11720279_a_at) / Fold change /veh FAM174B (11720279_a_at) / RFU TMPRSS4 (11748680_a_at) / Fold change /veh TMPRSS4 (11748680_a_at) / RFU FAM212B (11763350_a_at) / Fold change /veh FAM212B (11763350_a_at) / RFU PLEKHG5 (11743358_a_at) / Fold change /veh PLEKHG5 (11743358_a_at) / RFU ZSCAN30 (11745921_a_at) / Fold change /veh ZSCAN30 (11745921_a_at) / RFU CMKLR1 (11741424_a_at) / Fold change /veh CMKLR1 (11741424_a_at) / RFU LOC101060620 /// MAPK8IP1 (11723275_at) / Fold change /veh LOC101060620 /// MAPK8IP1 (11723275_at) / RFU SPTSSB (11747773_x_at) / Fold change /veh SPTSSB (11747773_x_at) / RFU PRSS12 (11739890_at) / Fold change /veh PRSS12 (11739890_at) / RFU BIN1 (11741810_x_at) / Fold change /veh BIN1 (11741810_x_at) / RFU WNT11 (11732464_a_at) / Fold change /veh WNT11 (11732464_a_at) / RFU C10orf10 (11716521_a_at) / Fold change /veh C10orf10 (11716521_a_at) / RFU C5orf56 (11738089_at) / Fold change /veh C5orf56 (11738089_at) / RFU CYB561 (11721691_x_at) / Fold change /veh CYB561 (11721691_x_at) / RFU ANKRD19P (11752326_a_at) / Fold change /veh ANKRD19P (11752326_a_at) / RFU OR2T12 /// OR2T33 /// OR2T8 (11738714_s_at) / Fold change /veh OR2T12 /// OR2T33 /// OR2T8 (11738714_s_at) / RFU VCAN (11748164_a_at) / Fold change /veh VCAN (11748164_a_at) / RFU JSRP1 (11732532_at) / Fold change /veh JSRP1 (11732532_at) / RFU KRTAP10-11 (11738290_x_at) / Fold change /veh KRTAP10-11 (11738290_x_at) / RFU MYO3A (11730013_a_at) / Fold change /veh MYO3A (11730013_a_at) / RFU EBF3 (11725865_a_at) / Fold change /veh EBF3 (11725865_a_at) / RFU CAMK2N1 (11719241_x_at) / Fold change /veh CAMK2N1 (11719241_x_at) / RFU C5orf56 (11738088_a_at) / Fold change /veh C5orf56 (11738088_a_at) / RFU OLFML3 (11715873_a_at) / Fold change /veh OLFML3 (11715873_a_at) / RFU LOC100653217 /// NTM (11731650_a_at) / Fold change /veh LOC100653217 /// NTM (11731650_a_at) / RFU MAPK11 (11762145_a_at) / Fold change /veh MAPK11 (11762145_a_at) / RFU FIZ1 (11724087_x_at) / Fold change /veh FIZ1 (11724087_x_at) / RFU OASL (11726364_x_at) / Fold change /veh OASL (11726364_x_at) / RFU SOX15 (11748057_x_at) / Fold change /veh SOX15 (11748057_x_at) / RFU CD79A (11719716_a_at) / Fold change /veh CD79A (11719716_a_at) / RFU HIST1H1D (11736915_at) / Fold change /veh HIST1H1D (11736915_at) / RFU CASKIN2 (11723855_a_at) / Fold change /veh CASKIN2 (11723855_a_at) / RFU LOC730098 (11760151_x_at) / Fold change /veh LOC730098 (11760151_x_at) / RFU OR4N2 (11742367_at) / Fold change /veh OR4N2 (11742367_at) / RFU PRRT2 (11749266_a_at) / Fold change /veh PRRT2 (11749266_a_at) / RFU SNX32 (11753110_a_at) / Fold change /veh SNX32 (11753110_a_at) / RFU CDHR5 (11726645_a_at) / Fold change /veh CDHR5 (11726645_a_at) / RFU RCAN1 (11760418_a_at) / Fold change /veh RCAN1 (11760418_a_at) / RFU FAM167A (11723789_a_at) / Fold change /veh FAM167A (11723789_a_at) / RFU FAM26E (11764081_at) / Fold change /veh FAM26E (11764081_at) / RFU ISYNA1 (11749810_s_at) / Fold change /veh ISYNA1 (11749810_s_at) / RFU ACY1 (11761880_at) / Fold change /veh ACY1 (11761880_at) / RFU 11764098_at / Fold change /veh 11764098_at / RFU SAMD14 (11745864_x_at) / Fold change /veh SAMD14 (11745864_x_at) / RFU NPB (11741838_a_at) / Fold change /veh NPB (11741838_a_at) / RFU TMPRSS6 (11731388_a_at) / Fold change /veh TMPRSS6 (11731388_a_at) / RFU KRTAP10-2 (11738614_at) / Fold change /veh KRTAP10-2 (11738614_at) / RFU ARHGAP8 /// PRR5-ARHGAP8 (11727945_x_at) / Fold change /veh ARHGAP8 /// PRR5-ARHGAP8 (11727945_x_at) / RFU KRTAP5-7 /// NADSYN1 (11734609_at) / Fold change /veh KRTAP5-7 /// NADSYN1 (11734609_at) / RFU RASL12 (11751679_a_at) / Fold change /veh RASL12 (11751679_a_at) / RFU CDKN2B (11736163_a_at) / Fold change /veh CDKN2B (11736163_a_at) / RFU PRF1 (11729649_at) / Fold change /veh PRF1 (11729649_at) / RFU, ZNF638 /// ZNF638-IT1 / Fold change vs veh, ZNF638 /// ZNF638-IT1 / RFU, PANK3 / Fold change vs veh, PANK3 / RFU, SH3YL1 / Fold change vs veh, SH3YL1 / RFU, ZEB2 / Fold change vs veh, ZEB2 / RFU, NRIP1 / Fold change vs veh, NRIP1 / RFU, PTTG1IP / Fold change vs veh, PTTG1IP / RFU, CAPN2 / Fold change vs veh, CAPN2 / RFU, MED14 / Fold change vs veh, MED14 / RFU, SNORA58 / Fold change vs veh, SNORA58 / RFU, C1orf63 / Fold change vs veh, C1orf63 / RFU, LRRFIP1 / Fold change vs veh, LRRFIP1 / RFU, NDUFAF7 / Fold change vs veh, NDUFAF7 / RFU, SLC12A2 / Fold change vs veh, SLC12A2 / RFU, IBTK / Fold change vs veh, IBTK / RFU, ESF1 / Fold change vs veh, ESF1 / Fold change vs veh, TMEM50B / RFU, TAOK1 / Fold change vs veh, TAOK1 / RFU, ACBD3 / Fold change vs veh, ACBD3 / RFU, TMA16 / Fold change vs veh, TMA16 / RFU, RWDD3 / Fold change vs veh, RWDD3 / RFU, BCAT1 / Fold change vs veh, BCAT1 / RFU, EDEM3 / Fold change vs veh, EDEM3 / RFU, TMEM33 / Fold change vs veh, TMEM33 / RFU, WDR75 / Fold change vs veh, WDR75 / RFU, AHCTF1 / Fold change vs veh, AHCTF1 / RFU, TFRC / Fold change vs veh, TFRC / RFU, ZDHHC17 / Fold change vs veh, ZDHHC17 / RFU, NOM1 / Fold change vs veh, NOM1 / RFU, ARL8B / Fold change vs veh, ARL8B / RFU, ZBTB11 / Fold change vs veh, ZBTB11 / RFU, TAMM41 / Fold change vs veh, TAMM41 / RFU, KIAA1704 /// LOC100996395 / Fold change vs veh, KIAA1704 /// LOC100996395 / RFU, ING1 / Fold change vs veh, ING1 / RFU, TRMT61B / Fold change vs veh, TRMT61B / RFU, FUBP3 / Fold change vs veh, FUBP3 / RFU, TP53 / Fold change vs veh, TP53 / RFU, TNKS2 / Fold change vs veh, TNKS2 / RFU, ZFP14 / Fold change vs veh, ZFP14 / RFU, ACTR2 / Fold change vs veh, ACTR2 / RFU, PPP3R1 / Fold change vs veh, PPP3R1 / RFU, PIK3R1 / Fold change vs veh, PIK3R1 / RFU, HNRNPA1 / Fold change vs veh, HNRNPA1 / RFU, RNF170 / Fold change vs veh, RNF170 / RFU, ZNF28 / Fold change vs veh, ZNF28 / RFU, RNGTT / Fold change vs veh, RNGTT / RFU, OGT / Fold change vs veh, OGT / RFU, BRD1 / Fold change vs veh, BRD1 / RFU, MARS / Fold change vs veh, MARS / RFU, ZNF655 / Fold change vs veh, ZNF655 / RFU, FAHD1 / Fold change vs veh, FAHD1 / RFU, BDP1 / Fold change vs veh, BDP1 / RFU, LRRCC1 / Fold change vs veh, LRRCC1 / RFU, ARID1A / Fold change vs veh, ARID1A / RFU, ZNF146 / Fold change vs veh, ZNF146 / RFU, ZNF330 / Fold change vs veh, ZNF330 / RFU, GPN3 / Fold change vs veh, GPN3 / RFU, C9orf123 / Fold change vs veh, C9orf123 / RFU, N4BP2L2 / Fold change vs veh, N4BP2L2 / RFU, ARFIP1 / Fold change vs veh, ARFIP1 / RFU, FAM179B / Fold change vs veh, FAM179B / RFU, BCL10 / Fold change vs veh, BCL10 / RFU, UHRF1BP1L / Fold change vs veh, UHRF1BP1L / RFU, BET1 / Fold change vs veh, BET1 / RFU, CNOT2 / Fold change vs veh, CNOT2 / RFU, ZNF268 / Fold change vs veh, ZNF268 / Fold change vs veh, ZNF507 / RFU, DGCR2 / Fold change vs veh, DGCR2 / RFU, WDSUB1 / Fold change vs veh, WDSUB1 / Fold change vs veh, HSP90B1 /// MIR3652 / RFU, ADSS / Fold change vs veh, ADSS / RFU, GK / Fold change vs veh, GK / RFU, ZNF148 / Fold change vs veh, ZNF148 / RFU, TAF9 / Fold change vs veh, TAF9 / RFU, SLC1A5 / Fold change vs veh, SLC1A5 / RFU, SLMO2 / Fold change vs veh, SLMO2 / RFU, ABCC4 / Fold change vs veh, ABCC4 / RFU, LOC101060439 /// RAP1B / Fold change vs veh, LOC101060439 /// RAP1B / RFU, RFX7 / Fold change vs veh, RFX7 / RFU, GTPBP10 / Fold change vs veh, GTPBP10 / RFU, CNEP1R1 / Fold change vs veh, CNEP1R1 / RFU, BIVM-ERCC5 /// ERCC5 / Fold change vs veh, BIVM-ERCC5 /// ERCC5 / RFU, ILF3 / Fold change vs veh, ILF3 / RFU 11762660_at / Fold change /veh 11762660_at / RFU VCAN (11757783_s_at) / Fold change /veh VCAN (11757783_s_at) / RFU DDX43 (11728927_at) / Fold change /veh DDX43 (11728927_at) / RFU KRT8 (11758188_x_at) / Fold change /veh KRT8 (11758188_x_at) / RFU NKD1 (11759106_at) / Fold change /veh NKD1 (11759106_at) / RFU SRD5A1 (11742802_a_at) / Fold change /veh SRD5A1 (11742802_a_at) / RFU TPSAB1 /// TPSB2 (11721975_s_at) / Fold change /veh TPSAB1 /// TPSB2 (11721975_s_at) / RFU GSTM3 (11746129_a_at) / Fold change /veh GSTM3 (11746129_a_at) / RFU IL23R (11737362_x_at) / Fold change /veh IL23R (11737362_x_at) / RFU TMEM51 (11727254_a_at) / Fold change /veh TMEM51 (11727254_a_at) / RFU PIWIL2 (11732686_x_at) / Fold change /veh PIWIL2 (11732686_x_at) / RFU ORM1 (11744905_x_at) / Fold change /veh ORM1 (11744905_x_at) / RFU CCDC152 (11743942_at) / Fold change /veh CCDC152 (11743942_at) / RFU ECM1 (11717891_a_at) / Fold change /veh ECM1 (11717891_a_at) / RFU IL23R (11748794_a_at) / Fold change /veh IL23R (11748794_a_at) / RFU TNFAIP8L3 (11732012_x_at) / Fold change /veh TNFAIP8L3 (11732012_x_at) / RFU MBOAT4 (11741988_at) / Fold change /veh MBOAT4 (11741988_at) / RFU 11764193_at / Fold change /veh 11764193_at / RFU TMEM53 (11763286_at) / Fold change /veh TMEM53 (11763286_at) / RFU MAGEB2 (11727129_at) / Fold change /veh MAGEB2 (11727129_at) / RFU TMEM200A (11744735_a_at) / Fold change /veh TMEM200A (11744735_a_at) / RFU CCDC152 (11751479_a_at) / Fold change /veh CCDC152 (11751479_a_at) / RFU FAM211A (11726209_a_at) / Fold change /veh FAM211A (11726209_a_at) / RFU RGS16 (11746705_a_at) / Fold change /veh RGS16 (11746705_a_at) / RFU VCAN (11755009_s_at) / Fold change /veh VCAN (11755009_s_at) / RFU RHOB (11743442_s_at) / Fold change /veh RHOB (11743442_s_at) / RFU RGS16 (11720943_a_at) / Fold change /veh RGS16 (11720943_a_at) / RFU RGS16 (11720944_at) / Fold change /veh RGS16 (11720944_at) / RFU, VPS4B / Fold change vs veh, VPS4B / RFU, CREB1 / Fold change vs veh, CREB1 / RFU, DNAJC13 / Fold change vs veh, DNAJC13 / RFU, GNAQ / Fold change vs veh, GNAQ / RFU, CDK5R1 / Fold change vs veh, CDK5R1 / RFU, ZRANB3 / Fold change vs veh, ZRANB3 / RFU, CUL4A / Fold change vs veh, CUL4A / RFU, CCNY / Fold change vs veh, CCNY / RFU, UFL1 / Fold change vs veh, UFL1 / RFU, COG3 / Fold change vs veh, COG3 / RFU, DIAPH2 / Fold change vs veh, DIAPH2 / RFU, SKA2 / Fold change vs veh, SKA2 / RFU, AFF3 / Fold change vs veh, AFF3 / RFU, LMF1 / Fold change vs veh, LMF1 / RFU, IPO11 / Fold change vs veh, IPO11 / RFU, DFFB / Fold change vs veh, DFFB / RFU, FOXP1 / Fold change vs veh, FOXP1 / RFU, CARD8 / Fold change vs veh, CARD8 / RFU, STRN3 / Fold change vs veh, STRN3 / RFU, ADK / Fold change vs veh, ADK / RFU, RASSF2 / Fold change vs veh, RASSF2 / RFU, WIPF1 / Fold change vs veh, WIPF1 / RFU, LARP1B / Fold change vs veh, LARP1B / RFU, RASA1 / Fold change vs veh, RASA1 / RFU, RB1 / Fold change vs veh, RB1 / RFU, PPFIA1 / Fold change vs veh, PPFIA1 / RFU, MAT2A / Fold change vs veh, MAT2A / RFU, CCT5 / Fold change vs veh, CCT5 / RFU, WDR92 / Fold change vs veh, WDR92 / RFU, CUX1 / Fold change vs veh, CUX1 / RFU, TTC7A / Fold change vs veh, TTC7A / RFU, TMEM135 / Fold change vs veh, TMEM135 / RFU, DEPTOR / Fold change vs veh, DEPTOR / RFU, CPM / Fold change vs veh, CPM / RFU, DNAJB6 / Fold change vs veh, DNAJB6 / RFU, CACNA2D3 / Fold change vs veh, CACNA2D3 / RFU, DTX4 / Fold change vs veh, DTX4 / RFU, TFCP2 / Fold change vs veh, TFCP2 / RFU, GMCL1 /// GMCL1P1 / Fold change vs veh, GMCL1 /// GMCL1P1 / RFU, AEBP2 / Fold change vs veh, AEBP2 / RFU, SNHG1 /// SNORD22 /// SNORD25 /// SNORD26 /// SNORD27 /// SNORD28 /// SNORD29 /// SNORD31 / Fold change vs veh, SNHG1 /// SNORD22 /// SNORD25 /// SNORD26 /// SNORD27 /// SNORD28 /// SNORD29 /// SNORD31 / Fold change (Aza/veh), C12orf56 (ProbeSet 11735607_a_at) / Fold change (ACY-1035/veh), C12orf56 (ProbeSet 11735607_a_at) / Fold change (Aza/veh), FGFR1OP (ProbeSet 11751329_s_at) / Fold change (ACY-1035/veh), FGFR1OP (ProbeSet 11751329_s_at) / Fold change (Aza/veh), VPS36 (ProbeSet 11739960_a_at) / Fold change (ACY-1035/veh), VPS36 (ProbeSet 11739960_a_at) / RFU SYPL1 (11715823_x_at) / Fold change /veh SYPL1 (11715823_x_at) / RFU IGFBP7 (11715501_s_at) / Fold change /veh IGFBP7 (11715501_s_at) / RFU REEP3 (11722064_at) / Fold change /veh REEP3 (11722064_at) / RFU IGLL1 (11728026_x_at) / Fold change /veh IGLL1 (11728026_x_at): dose or concentration left out as unconfirmed
Conditions: ProbeSet 11743362_s_at; LIST B

With `Nc1ncn([C@@H]2O[C@H](CO)[C@@H](O)[C@H]2O)c(=O)n1` [azacitidine] as the molecule, how does the “Fold change vs veh, ADSS” value read?
The value was 0.89.
